What was measured:
Type in all cases: biochemical
procaspase-3 = molecular target: T1, procaspase-3 (Homo sapiens, UniProt P42574); assay: Executioner procaspase-3 activation assay (Ac-DEVD-AFC fluorogenic substrate); settings: incubation with compound for 5 h at 37° C.; 100 nM procaspase; read-out: Procaspase Activation 3
T1 construct: His6 (C); made in house; host or cells: E. coli BL21(DE3)RP, pET-23b
T1 sequence (P42574 1-277): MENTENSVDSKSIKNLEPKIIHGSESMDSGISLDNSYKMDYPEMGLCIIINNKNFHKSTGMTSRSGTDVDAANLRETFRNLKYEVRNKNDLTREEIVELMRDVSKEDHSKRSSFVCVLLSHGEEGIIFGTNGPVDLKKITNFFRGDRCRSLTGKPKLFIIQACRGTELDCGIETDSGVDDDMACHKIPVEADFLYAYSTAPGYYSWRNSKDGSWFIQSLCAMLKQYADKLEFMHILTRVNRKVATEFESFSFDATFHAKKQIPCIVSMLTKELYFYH
Procedure: The executioner procaspase-3, -6 and -7 activation assay protocol involves incubating the target protein at the physiologically-relevant concentration of 100 nM with activating compounds (ranging from 100 nM to 100 uM) in a total volume of 50 μL consisting of a reaction buffer of 50 mM HEPES, pH 7.4, 50 mM KCl, 1 mM DTT and 0.01% Triton-X100 (to reduce false positive hits due to compound aggregation). […] All components of the assay including protein, substrate and inhibitor are stored as frozen aliquots and thawed immediately prior to the assay.

procaspase-6 = molecular target: T2, procaspase-6 (Homo sapiens, UniProt P55212); assay: Executioner procaspase-6 activation assay (Ac-VEID-AFC fluorogenic substrate); settings: incubation with compound for 5 h at 37° C.; 100 nM procaspase
T2 sequence (P55212 1-293): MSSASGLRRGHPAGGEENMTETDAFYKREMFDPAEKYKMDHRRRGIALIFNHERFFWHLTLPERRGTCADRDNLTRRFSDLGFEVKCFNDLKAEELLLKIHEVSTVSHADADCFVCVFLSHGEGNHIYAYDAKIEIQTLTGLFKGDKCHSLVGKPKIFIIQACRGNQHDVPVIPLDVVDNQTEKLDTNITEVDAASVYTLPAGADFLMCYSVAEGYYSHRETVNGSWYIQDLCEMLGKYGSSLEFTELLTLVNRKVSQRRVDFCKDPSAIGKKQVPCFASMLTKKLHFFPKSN
Procedure: (§1) The executioner procaspase-3, -6 and -7 activation assay protocol involves incubating the target protein at the physiologically-relevant concentration of 100 nM with activating compounds (ranging from 100 nM to 100 uM) in a total volume of 50 μL consisting of a reaction buffer of 50 mM HEPES, pH 7.4, 50 mM KCl, 1 mM DTT and 0.01% Triton-X100 (to reduce false positive hits due to compound aggregation). The procaspase/small molecule incubations are then agitated at 37° C. and assayed at various time points by addition of the fluorogenic peptide substrate 7-Amino-4-trifluoromethylcoumarin-DEVD (Ac-DEVD-AFC) (procaspases-3, -7) or Ac-VEID-AFC (procaspase-6) to a final concentration of 25 μM and analyzed by a kinetic 30 minute assay (excitation 365 nm and emission 495 nm). The final concentration of DMSO in each well is 3% and has no effect on enzyme stability or activity. […] All components of the assay including protein, substrate and inhibitor are stored as frozen aliquots and thawed immediately prior to the assay.
(§2) Tables 1 and 2. Procaspase activation as a result of incubation with compound for 5 h at 37° C. (+++ EC50˜0.5-10 μM; ++ EC50˜10-50 μM; + EC50˜50-200 μM; -no activation observed; ND not determined).

procaspase-7 = molecular target: T3, procaspase-7 (Homo sapiens, UniProt P55210); assay: Executioner procaspase-7 activation assay (Ac-DEVD-AFC fluorogenic substrate); settings: incubation with compound for 5 h at 37° C.; 100 nM procaspase
T3 construct: His6 (C); made in house; host or cells: E. coli BL21(DE3)RP, pET-21b
T3 sequence (P55210 1-303): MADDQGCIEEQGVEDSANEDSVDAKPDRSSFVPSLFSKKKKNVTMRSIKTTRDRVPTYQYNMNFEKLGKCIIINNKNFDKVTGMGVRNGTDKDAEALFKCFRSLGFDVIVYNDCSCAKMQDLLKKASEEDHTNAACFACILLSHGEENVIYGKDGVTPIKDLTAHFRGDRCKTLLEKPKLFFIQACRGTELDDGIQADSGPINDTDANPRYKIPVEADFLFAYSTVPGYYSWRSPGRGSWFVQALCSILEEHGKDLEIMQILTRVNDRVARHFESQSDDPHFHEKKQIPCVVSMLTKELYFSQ
Procedure: as §1, §2

Compound	EC50 (procaspase-3) [µM]	EC50 (procaspase-6) [µM]	EC50 (procaspase-7) [µM]
COc1cccc2cc(C(=O)Nc3cccc(-c4cnn(C)c4)c3)c(=O)oc12 [compound 172, 8-Methoxy-2-oxo-2H-chromene-3-carboxylic acid [3-(1-methyl-1H-pyrazol-4-yl)-phenyl]-amide]	> 100	> 100	> 100
O=C(Nc1cccc(-c2cn[nH]c2)c1)c1cc2cccc(O)c2oc1=O [compound 149, 8-Hydroxy-2-oxo-2H-chromene-3-carboxylic acid [3-(1H-pyrazol-4-yl)-phenyl]-amide]	> 100	> 100	> 100
O=C(Nc1cccc(-c2ccc(O)nc2)c1)c1cc2cccc(O)c2oc1=O [compound 139, 8-Hydroxy-2-oxo-2H-chromene-3-carboxylic acid [3-(6-hydroxy-pyridin-3-yl)-phenyl]-amide]	> 100	> 100	> 100
COc1cncc(-c2cccc(NC(=O)c3cc4cccc(O)c4oc3=O)c2)c1 [compound 131, 8-Hydroxy-2-oxo-2H-chromene-3-carboxylic acid [3-(5-methoxy-pyridin-3-yl)-phenyl]-amide]	> 100	> 100	> 100
COc1cccc2cc(C(=O)Nc3cccc(-c4cnc5ccccc5c4)c3)c(=O)oc12 [compound 84, 8-Methoxy-2-oxo-2H-chromene-3-carboxylic acid [3-Quinolin-3-yl-phenyl]-amide]	> 100	> 100	> 100
CN(C)c1ccc(-c2cccc(NC(=O)c3cc4cccc(O)c4oc3=O)c2)cn1 [compound 137, 8-Hydroxy-2-oxo-2H-chromene-3-carboxylic acid [3-(6-dimethylamino-pyridin-3-yl)-phenyl]-amide]	> 100	> 100	> 100
CCOc1ccc(-c2cccc(NC(=O)c3cc4cccc(OC)c4oc3=O)c2)cc1 [compound 69, 8-Methoxy-2-oxo-2H-chromene-3-carboxylic acid (4′-ethoxy-biphenyl-3-yl)-amide]	> 100	> 100	> 100
COc1cccc2cc(C(=O)Nc3cccc(-c4cccnc4)c3)c(=O)oc12 [compound 18, 8-Methoxy-2-oxo-2H-chromene-3-carboxylic acid (3-pyridin-3-yl-phenyl)-amide]	> 100	> 100	> 100
CC(C)(C)OC(=O)n1c(-c2cccc(NC(=O)c3cc4cccc(O)c4oc3=O)c2)cc2ccccc21 [compound 175, 2-{3-[(8-Hydroxy-2-oxo-2H-chromene-3-carbonyl)-amino]-phenyl}-indole-1-carboxylic acid tert-butyl ester]	> 100	> 100	> 100
O=C(Nc1cccc(N2CCOCC2)c1)c1cc2cccc(O)c2oc1=O [compound 16, 8-Hydroxy-2-oxo-2H-chromene-3-carboxylic acid (3-morpholin-4-yl-phenyl)-amide]	> 100	> 100	> 100
COc1cccc2cc(C(=O)Nc3cccc(-c4cccc(C#N)c4)c3)c(=O)oc12 [compound 148, 8-Methoxy-2-oxo-2′-chromene-3-carboxylic acid (3′-cyano-biphenyl-3-yl)-amide]	> 100	> 100	> 100
COc1cccc2cc(C(=O)Nc3cccc(-c4cc(F)cc(F)c4)c3)c(=O)oc12 [compound 178, 8-Methoxy-2-oxo-2H-chromene-3-carboxylic acid (3′,5′-difluoro-biphenyl-3-yl)-amide]	> 100	10 to 50	> 100
COc1cccc2cc(C(=O)Nc3cccc(-c4ccc5c(c4)OCO5)c3)c(=O)oc12 [compound 63, 8-Methoxy-2-oxo-2H-chromene-3-carboxylic acid (3-Benzo[1,3]dioxol-5-yl-phenyl)-amide]	> 100	> 100	> 100
COc1cccc2cc(C(=O)Nc3cccc(-c4cncnc4)c3)c(=O)oc12 [compound 136, 8-Methoxy-2-oxo-2H-chromene-3-carboxylic acid (3-pyrimidin-5-yl-phenyl)-amide]	50 to 200	50 to 200	> 100
COc1cccc2cc(C(=O)Nc3cccc(-c4ccc5occc(=O)c5c4)c3)c(=O)oc12 [compound 162, 8-Methoxy-2-oxo-2H-chromene-3-carboxylic acid [3-(4-oxo-4H-chromen-6-yl)-phenyl]-amide]	> 100	0.5 to 10	> 100
Cn1nccc1-c1cccc(NC(=O)c2cc3cccc(O)c3oc2=O)c1 [compound 151, 8-Hydroxy-2-oxo-2H-chromene-3-carboxylic acid [3-(2-methyl-2H-pyrazol-3-yl)-phenyl]-amide]	10 to 50	> 100	10 to 50

The remaining lines, values ahead:

EC50 (procaspase-3) [µM]	EC50 (procaspase-6) [µM]	EC50 (procaspase-7) [µM]	Compound
> 100	> 100	> 100	O=C(Nc1cccc(-c2ccn[nH]2)c1)c1cc2cccc(O)c2oc1=O [compound 155, 8-Hydroxy-2-oxo-2H-chromene-3-carboxylic acid [3-(2H-pyrazol-3-yl)-phenyl]-amide]
> 100	> 100	> 100	COc1ccc(-c2cccc(NC(=O)c3cc4cccc(OC)c4oc3=O)c2)c(OC)c1 [compound 51, 8-Methoxy-2-oxo-2H-chromene-3-carboxylic acid (2′,4′-dimethoxy-biphenyl-3-yl)-amide]
> 100	> 100	> 100	CCOc1ncccc1-c1cccc(NC(=O)c2cc3cccc(OC(F)(F)F)c3oc2=O)c1 [compound 43, 8-Trifluoromethoxy-2-oxo-2H-chromene-3-carboxylic acid [3-(2-ethoxy-pyridin-3-yl)-phenyl]-amide]
> 100	> 100	> 100	COc1cccc2cc(C(=O)Nc3cccc(-c4ccc5nonc5c4)c3)c(=O)oc12 [compound 160, 8-Methoxy-2-oxo-2H-chromene-3-carboxylic acid (3-benzo[1,2,5]oxadiazol-5-yl-phenyl)-amide]
> 100	> 100	> 100	CCOc1ccc(-c2cccc(NC(=O)c3cc4cccc(O)c4oc3=O)c2)cc1 [compound 68, 8-Hydroxy-2-oxo-2H-chromene-3-carboxylic acid (4′-Ethoxy-biphenyl-3-yl)-amide]
> 100	> 100	> 100	O=C(Nc1cccc(-c2ccc3[nH]c(=O)[nH]c3c2)c1)c1cc2cccc(O)c2oc1=O [compound 157, 8-Hydroxy-2-oxo-2H-chromene-3-carboxylic acid [3-(2-oxo-2,3-dihydro-1H-benzoimidazol-5-yl)-phenyl]-amide]
> 100	> 100	0.5 to 10	COc1ccc2cc(-c3cccc(NC(=O)c4cc5cccc(O)c5oc4=O)c3)ccc2c1 [compound 77, 8-Hydroxy-2-oxo-2H-chromene-3-carboxylic acid [3-(6-methoxy-naphthalen-2-yl)-phenyl]-amide]
> 100	> 100	> 100	COc1cccc2cc(C(=O)Nc3cccc(-c4c(C)noc4C)c3)c(=O)oc12 [compound 154, 8-Methoxy-2-oxo-2H-chromene-3-carboxylic acid [3-(3,5-dimethyl-isoxazol-4-yl)-phenyl]-amide]

From patent US8642788B2, “Activators of executioner procaspases 3, 6 and 7” (The Regents of the University of California, priority 2008, dated 2014)
